According to patent US12568967B2, “Compositions comprising pyridine carboxylate herbicides with synthetic auxin herbicides or auxin transport inhibitors” (priority 2018, dated 2026):
Where two headings read alike, the source gives them in different places.

What was measured:
[1] = system: Hordeum vulgare (spring barley, HORVS); type: in vivo; details: for % visual injury (Obs): alone 280 g/ha
[2] = system: Brassica napus (spring rape, BRSNN); experiment: Greenhouse postemergence trial BRSNN; type: in vivo
Protocol: (§1) The plants were grown for 7-36 days (d) in a greenhouse with an approximate 14-hour (h) photo-period which was maintained at about 23° C. during the day and 22° C. during the night. Nutrients and water were added on a regular basis and supplemental lighting was provided with overhead metal halide 1000-Watt lamps as necessary. The plants were employed for testing when they reached the second or third true leaf stage.
(§2) The emulsifiable concentrates also included a safener, cloquintocet-mexyl, at 120 grams active ingredient per liter (g ai/L), unless otherwise noted below.
(§3) Control plants were sprayed in the same manner with the solvent blank. All pyridine carboxylate herbicide (component a) application rates are given as “g ae/ha” and all synthetic auxin herbicide or auxin transport inhibitor (component b) application rates are given as “g ai/ha.”
(§4) The treated plants and control plants were placed in a greenhouse as described above and watered by sub-irrigation to prevent wash-off of the test compounds. After 20-22 d, the condition of the test plants as compared with that of the control plants was determined visually and scored on a scale of 0 to 100 percent where 0 corresponds to no injury and 100 corresponds to complete kill.

[3] = system: Triticum aestivum (spring wheat, TRZAS); type: in vivo; details: for % visual injury (crop phytotoxicity): c1-2 Compound A 7.5/10; for % visual injury (Obs): alone 280 g/ha
[4] = system: Papaver rhoeas (corn poppy), herbicide-resistant (PAPRH-R); experiment: Greenhouse postemergence trial PAPRH-R; type: in vivo; details: PAPRH-R
Protocol: (§5) Seeds of the desired test plant species were planted in a 90:10% v/v (volume/volume) mixture of PRO-MIX® BX (Premier Tech Horticulture, Quakertown, PA, USA) and PROFILE® GREENS GRADE™ (Profile Products LLC, Buffalo Grove, IL, USA) planting mixture, which typically has a pH of 5.2 to 6.2 and an organic matter content of at least 50 percent, in plastic pots with a surface area of 103.2 square centimeters (cm^2). […] The plants were grown for 7-36 days (d) in a greenhouse with an approximate 14-hour (h) photo-period which was maintained at about 23° C. during the day and 22° C. during the night. Nutrients and water were added on a regular basis and supplemental lighting was provided with overhead metal halide 1000-Watt lamps as necessary. The plants were employed for testing when they reached the second or third true leaf stage.
(§6) Emulsifiable concentrates of each of each pyridine carboxylate herbicide (Compound A or Compound B) were prepared at 100 grams acid equivalent per liter (g ae/L). The emulsifiable concentrates also included a safener, cloquintocet-mexyl, at 120 grams active ingredient per liter (g ai/L), unless otherwise noted below. An aliquot of each emulsifiable concentrate was placed in a 25 mL glass vial and diluted with an aqueous mixture of 1.25% (v/v) ACTIROB® B esterified rapeseed oil (Bayer Crop Science, Research Triangle Park, NC, USA) or MSO® Concentrate with LECI-TECH® methylated soybean oil (Loveland Products, Loveland, CO, USA) to obtain concentrated stock solutions at the highest application rate for each herbicide, based upon a 12 milliliter (mL) application volume at a rate of 187 liters per hectare (L/ha). The concentrated stock solutions were further diluted with an aqueous mixture of 1.25% v/v ACTIROB® B or MSO® Concentrate with LECI-TECH® to obtain stock solutions at reduced application rates for each herbicide. Spray solutions of the herbicide combinations (Compound A or Compound B plus synthetic auxin herbicide or auxin transport inhibitor) were prepared by adding weighed amounts or aliquots of the synthetic auxin herbicide or auxin transport inhibitor to the stock solutions of Compound A or Compound B to form 12-mL spray solutions in two-way combinations.
(§7) The spray solutions were applied to the plant material with an overhead Mandel track sprayer equipped with 8002E nozzles calibrated to deliver 187 L/ha over an application area of 0.503 square meters (m^2) at a spray height of 18 inches (43 centimeters (cm)) above the average plant canopy. Control plants were sprayed in the same manner with the solvent blank. All pyridine carboxylate herbicide (component a) application rates are given as “g ae/ha” and all synthetic auxin herbicide or auxin transport inhibitor (component b) application rates are given as “g ai/ha.”
as §4

[5] = system: Sinapis arvensis (wild mustard, SINAR); experiment: Greenhouse postemergence trial SINAR; type: in vivo; details: SINAR
[6] = system: Lamium purpureum (purple deadnettle, LAMPU); experiment: Greenhouse postemergence trial LAMPU
[7] = system: Matricaria chamomilla (wild chamomile, MATCH); experiment: Greenhouse postemergence trial MATCH; type: in vivo; details: MATCH;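 also: greenhouse plants sprayed at second to third true leaf stage, injury rated by eye 20-22 d later versus solvent-blank controls on 0–100 scale, 0 no injury, 100 complete kill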
Protocol: as §1, §2, §3, §4

[8] = system: Chenopodium album L. (common lambsquarters, CHEAL); experiment: Greenhouse postemergence trial CHEAL; type: in vivo; details: for % visual injury: c1-2 Compound A 7.5/10;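 as to all read-outs here: greenhouse plants sprayed at second to third true leaf stage, injury rated by eye after 20-22 d versus solvent-blank sprayed controls, 0 = no injury, 100 = complete kill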
Protocol: as §1, §2, §3, §4

[9] = system: Kochia scoparia (kochia, KCHSC); experiment: Greenhouse postemergence trial KCHSC; type: in vivo; details: KCHSC; for % visual injury (Obs): alone 280 g/ha
Protocol: as §5, §6, §7, §4

[10] = system: Anthemis arvensis (field chamomile, ANTAR); experiment: Greenhouse postemergence trial ANTAR; type: in vivo; details: ANTAR
[11] = system: Veronica persica (bird's-eye speedwell, VERPE); experiment: Greenhouse postemergence trial VERPE; type: in vivo
[12] = system: Brassica napus (winter rape, BRSNW); experiment: Greenhouse postemergence trial BRSNW; type: in vivo
[13] = system: Veronica hederifolia (ivyleaf speedwell, VERHE); experiment: Greenhouse postemergence trial VERHE; type: in vivo; details: VERHE
[14] = system: Stellaria media (chickweed, STEME); experiment: Greenhouse postemergence trial STEME; type: in vivo; details: STEME
[15] = system: Cyanus segetum (cornflower, CENCY); experiment: Greenhouse postemergence trial CENCY; type: in vivo; details: CENCY
[16] = system: Capsella bursa-pastoris (shepherd's purse, CAPBP); experiment: Greenhouse postemergence trial CAPBP; type: in vivo; details: CAPBP
[17] = system: Viola tricolor (wild pansy, VIOTR); experiment: Greenhouse postemergence trial VIOTR;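 also: greenhouse plants sprayed at second to third true leaf stage, injury rated visually after 20-22 d against solvent-blank sprayed controls, 0 meaning no injury and 100 complete kill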
[18] = system: Polygonum convolvulus (wild buckwheat, POLCO); experiment: Greenhouse postemergence trial POLCO; type: in vivo; details: for % visual injury (Obs): alone 280 g/ha
Protocol: as §5, §6, §7, §4

[19] = system: Viola arvensis (field violet, VIOAR); experiment: Greenhouse postemergence trial VIOAR; type: in vivo; details: VIOAR
[20] = system: Cirsium arvense (Canadian thistle, CIRAR); experiment: Greenhouse postemergence trial CIRAR; type: in vivo
[21] = system: Matricaria inodora (false chamomile, MATIN); experiment: Greenhouse postemergence trial MATIN; type: in vivo; details: MATIN
Protocol: as §5, §6, §7, §4

[22] = system: Salsola kali (Russian thistle, SASKR); experiment: Greenhouse postemergence trial SASKR; type: in vivo; details: SASKR;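 also: greenhouse plants sprayed at second or third true leaf stage, injury rated by eye after 20-22 d against solvent-blank controls, 0 meaning no injury, 100 complete kill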
[23] = system: Amaranthus retroflexus (pigweed, AMARE); experiment: Greenhouse postemergence trial AMARE; type: in vivo; details: for % visual injury: c1-2 Compound A 7.5/10;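 as to all read-outs here: Greenhouse-grown plants sprayed at second to third true leaf stage, injury rated by eye after 20-22 d versus solvent-blank sprayed controls, 0 = no injury, 100 = complete kill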
Protocol: as §1, §2, §3, §4

[24] = system: Papaver rhoeas (corn poppy, PAPRH); experiment: Greenhouse postemergence trial PAPRH; type: in vivo; details: PAPRH
Protocol: as §5, §6, §7, §4

[25] = system: Matricaria discoidea (pineapple weed, MATMT); experiment: Greenhouse postemergence trial MATMT; type: in vivo; details: MATMT
Protocol: as §5, §6, §7, §4

[26] = system: Triticum aestivum (winter wheat, TRZAW); experiment: Greenhouse postemergence crop phytotoxicity TRZAW; type: in vivo; details: TRZAW
[27] = system: Hordeum vulgare (winter barley, HORVW); experiment: Greenhouse postemergence crop phytotoxicity HORVW; type: in vivo; details: HORVW
[28] = partner herbicide 560 g/ha alone
[29] = c3 2,4-D-EHE 280, c4-5 A 7.5/10 + 2,4-D-EHE 280 g/ha
[30] = Papaver rhoeas, post-emergence, Quinclorac 560 g/ha, read-out: % visual injury Obs
[31] = c3 Quinclorac 140, c4-5 A 7.5/10 + Quinclorac 140 g/ha

O=C(O)COc1ccc(Cl)cc1Cl [2,4-D Choline, 2,4-D choline, reference compound]
% visual injury, Obs (crop phytotoxicity) ([1]; Hordeum vulgare (spring barley, HORVS), in vivo): 0% | % visual injury, Obs ([2]; in vivo): 80% | % visual injury, Obs (crop phytotoxicity) ([3]; Triticum aestivum (spring wheat, TRZAS), in vivo): 0%

CCCCC(CC)COC(=O)COc1ccc(Cl)cc1Cl [2,4-D-EHE, 2,4-D-2-ethylhexyl, reference compound]
visual injury, Obs [4, 28]: 50% | visual injury, Obs [5, 28]: 85% | visual injury, Obs ([6]; LAMPU, partner herbicide 560 g/ha alone): 20% | visual injury, Obs [7, 28]: 10% | % visual injury [8, 29]: 75% | visual injury, Obs [9, 28]: 65% | visual injury, Obs [10, 28]: 60% | visual injury, Obs ([11]; VERPE, partner herbicide 560 g/ha alone): 65% | BRSNW % visual injury Obs ([12]; 2,4-D-EHE 280 g/ha (Table 36)): 65% | BRSNW Δ (Obs minus Exp) ([12]; 2,4-D-EHE 280 g/ha (Table 36)): 3% | visual injury, Obs ([12]; BRSNW, partner herbicide 560 g/ha alone): 100% | visual injury, Obs [13, 28]: 70% | visual injury, Obs [14, 28]: 10% | visual injury, Obs [15, 28]: 100% | visual injury, Obs [16, 28]: 70% | visual injury, Obs ([17]; VIOTR, partner herbicide 560 g/ha alone): 65% | POLCO % visual injury Obs ([18]; 2,4-D-EHE 280 g/ha (Table 36)): 23% | POLCO Δ (Obs minus Exp) ([18]; 2,4-D-EHE 280 g/ha (Table 36)): 11% | visual injury, Obs ([18]; POLCO, partner herbicide 560 g/ha alone): 30% | visual injury, Obs [19, 28]: 60% | CIRAR % visual injury Obs ([20]; 2,4-D-EHE 280 g/ha (Table 36)): 45% | visual injury, Obs ([20]; CIRAR, partner herbicide 560 g/ha alone): 65% | % visual injury (crop phytotoxicity) [3, 29]: 0% | visual injury, Obs [21, 28]: 10% | visual injury, Obs [22, 28]: 65% | AMARE % visual injury Obs ([23]; 2,4-D-EHE 280 g/ha (Table 36)): 45% | % visual injury [23, 29]: 70% | visual injury, Obs [24, 28]: 60% | visual injury, Obs [25, 28]: 5%

Cc1cc(Cl)ccc1OC(C)C(=O)O (stereo not shown) [Mecoprop]
% visual injury, Obs ([4]; applied alone, 560 g/ha): 30% | % visual injury (Obs) ([5]; alone 280 g/ha): 80% | % visual injury, Obs ([5]; applied alone, 560 g/ha): 95% | % visual injury, Obs ([6]; LAMPU, applied alone, 560 g/ha): 10% | % visual injury (Obs) ([7]; alone 280 g/ha): 18% | % visual injury, Obs ([7]; applied alone, 560 g/ha): 10% | % visual injury (Obs) ([8]; CHEAL, alone 280 g/ha): 73% | % visual injury (Obs) [9]: 68% | % visual injury, Obs ([9]; applied alone, 560 g/ha): 80% | % visual injury, Obs ([10]; applied alone, 560 g/ha): 10% | % visual injury, Obs ([11]; VERPE, applied alone, 560 g/ha): 30% | % visual injury (Obs) ([12]; BRSNW, alone 280 g/ha): 63% | plant injury at 560 g/ha ([12]; Brassica napus, post-emergence, BRSNW, applied alone, 560 g/ha, read-out: % visual injury, Obs): 75% | % visual injury, Obs ([13]; applied alone, 560 g/ha): 50% | % visual injury, Obs ([26]; applied alone, 560 g/ha): 0% | % visual injury, Obs ([14]; applied alone, 560 g/ha): 30% | % visual injury, Obs ([15]; applied alone, 560 g/ha): 100% | % visual injury, Obs ([16]; applied alone, 560 g/ha): 60% | % visual injury, Obs ([17]; VIOTR, applied alone, 560 g/ha): 65% | % visual injury (Obs) ([1]; HORVS): 0% | % visual injury, Obs ([1]; HORVS, applied alone, 560 g/ha): 0% | % visual injury (Obs) ([18]; POLCO): 10% | % visual injury, Obs ([18]; POLCO, applied alone, 560 g/ha): 20% | % visual injury, Obs ([19]; applied alone, 560 g/ha): 10% | % visual injury (Obs) ([20]; CIRAR, alone 280 g/ha): 68% | % visual injury, Obs ([20]; CIRAR, applied alone, 560 g/ha): 70% | % visual injury (Obs) ([3]; TRZAS): 0% | % visual injury, Obs ([3]; TRZAS, applied alone, 560 g/ha): 0% | % visual injury, Obs ([27]; applied alone, 560 g/ha): 0% | % visual injury, Obs ([21]; applied alone, 560 g/ha): 65% | % visual injury, Obs ([22]; applied alone, 560 g/ha): 50% | % visual injury (Obs) ([23]; AMARE, alone 280 g/ha): 58% | % visual injury, Obs ([24]; applied alone, 560 g/ha): 65% | % visual injury, Obs ([25]; applied alone, 560 g/ha): 10%

CNC.O=C(O)COc1ccc(Cl)cc1Cl [2,4-D DMA]
% visual injury (Obs) [9]: 10% | % visual injury (Obs) ([17]; VIOTR, alone 280 g/ha): 65% | % visual injury (Obs) ([1]; HORVS): 0% | % visual injury (Obs) ([18]; POLCO): 55% | % visual injury (Obs) ([2]; BRSNN, alone 280 g/ha): 83% | % visual injury (Obs) ([3]; TRZAS): 5%

O=C(O)c1c(Cl)ccc2cc(Cl)cnc12 [Quinclorac, quinclorac, reference compound]
pest or weed control [4, 30]: 50% | pest or weed control ([5]; Mutarda arvensis, post-emergence, Quinclorac 560 g/ha, read-out: % visual injury Obs): 10% | pest or weed control at 560 g/ha ([6]; Lamium purpureum, post-emergence, read-out: % visual injury Obs): 10% | pest or weed control ([7]; Matricaria chamomilla, post-emergence, Quinclorac 560 g/ha, read-out: % visual injury Obs): 10% | % visual injury [8, 31]: 0% | pest or weed control ([9]; Bassia scoparia, post-emergence, Quinclorac 560 g/ha, read-out: % visual injury Obs): 10% | pest or weed control ([10]; Anthemis arvensis, post-emergence, Quinclorac 560 g/ha, read-out: % visual injury Obs): 0% | pest or weed control ([11]; Veronica persica, post-emergence, VERVE, Quinclorac 560 g/ha, read-out: % visual injury Obs): 50% | plant injury ([12]; Brassica napus, post-emergence, BRSNW, Quinclorac 560 g/ha, read-out: % visual injury Obs): 10% | pest or weed control ([13]; Veronica hederifolia, post-emergence, Quinclorac 560 g/ha, read-out: % visual injury Obs): 30% | % visual injury Obs ([26]; Quinclorac 560 g/ha): 0% | pest or weed control ([14]; Stellaria media, post-emergence, Quinclorac 560 g/ha, read-out: % visual injury Obs): 5% | pest or weed control ([15]; Centaurea cyanus, post-emergence, Quinclorac 560 g/ha, read-out: % visual injury Obs): 60% | pest or weed control ([16]; Capsella bursa-pastoris, post-emergence, Quinclorac 560 g/ha, read-out: % visual injury Obs): 0% | pest or weed control at 560 g/ha ([17]; Viola tricolor, post-emergence, read-out: % visual injury Obs): 10% | % visual injury Obs ([1]; HORVS, Quinclorac 560 g/ha): 0% | % visual injury (crop phytotoxicity) ([1]; c1-2 Compound A 7.5/10, c3 Quinclorac 140, c4-5 A 7.5/10 + Quinclorac 140 g/ha): 5% | pest or weed control ([18]; Fallopia convolvulus, post-emergence, POLCO, Quinclorac 560 g/ha, read-out: % visual injury Obs): 10% | pest or weed control ([19]; Viola arvensis, post-emergence, Quinclorac 560 g/ha, read-out: % visual injury Obs): 30% | pest or weed control ([20]; Cirsium arvense, post-emergence, CIRAR, Quinclorac 560 g/ha, read-out: % visual injury Obs): 30% | % visual injury Obs ([3]; TRZAS, Quinclorac 560 g/ha): 0% | % visual injury (crop phytotoxicity) [3, 31]: 0% | % visual injury Obs ([27]; Quinclorac 560 g/ha): 0% | pest or weed control ([21]; Tripleurospermum inodorum, post-emergence, Quinclorac 560 g/ha, read-out: % visual injury Obs): 0% | pest or weed control ([22]; Salsola kali, post-emergence, Quinclorac 560 g/ha, read-out: % visual injury Obs): 10% | % visual injury [23, 31]: 0% | pest or weed control [24, 30]: 10% | pest or weed control ([25]; Matricaria discoidea, post-emergence, Quinclorac 560 g/ha, read-out: % visual injury Obs): 0%
